According to article PMC12459614 (European journal of medicinal chemistry, 2025):

Key:
hGPR17L [1] = target: T1, hGPR17L (Homo sapiens, UniProt Q13304); assay: Calcium mobilization assay; format: cell-based; conditions: for Emax: 1321-N1, read-out: % Efficacy Avg ± SEM; for IC50 / Calcium assay IC50(μM) Avg ± SEM: reported only when efficacy ≥75%; for antagonist activity at GPR17: calcium mobilization assay, data not shown
hGPR17L [2] = target: T1, hGPR17L; assay: cAMP signaling in GLUTag cells expressing hGPR17L; format: cell-based; conditions: for attenuation of MDL-mediated inhibition of forskolin-stimulated cAMP: 10 μM compound, 100 nM MDL, 10 μM forskolin
[3] = Calcium assay IC50(μM) Avg ± SEM, Table 3
[4] = Calcium Assay IC50(μM) Avg ± SEM, Table 2

T1 sequence (Q13304 whole entry): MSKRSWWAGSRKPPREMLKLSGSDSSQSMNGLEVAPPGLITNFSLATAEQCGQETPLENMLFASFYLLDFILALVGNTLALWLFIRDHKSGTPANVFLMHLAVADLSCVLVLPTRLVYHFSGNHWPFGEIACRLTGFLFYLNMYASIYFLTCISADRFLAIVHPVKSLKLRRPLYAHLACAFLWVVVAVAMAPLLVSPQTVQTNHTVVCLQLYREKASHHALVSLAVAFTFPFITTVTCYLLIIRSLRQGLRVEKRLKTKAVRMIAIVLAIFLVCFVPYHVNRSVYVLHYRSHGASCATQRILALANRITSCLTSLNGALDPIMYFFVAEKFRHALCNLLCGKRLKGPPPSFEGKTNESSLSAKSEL

## O=C(NC1CCCc2c1[nH]c1c(Cl)cccc21)c1c(F)cc([N+](=O)[O-])cc1F (stereo not shown) [Compd 12, N-(8-chloro-2,3,4,9-tetrahydro-1H-carbazol-1-yl)-2,6-difluoro-4-nitrobenzamide]
hGPR17L [1]
  Emax: 44.3 ± 3.47%

## COc1ccc(C(=O)NC2CCCc3c2[nH]c2c(C)cc(C)cc32)cc1OC (stereo not shown) [Compd 21, N-(6,8-Dimethyl-2,3,4,9-tetrahydro-1H-carbazol-1-yl)-3,4-dimethoxybenzamide]
hGPR17L [1]
  Emax: 87.5 ± 0.92%
hGPR17L [1]; [3]
  IC50: 12.2 ± 0.5 µM
hGPR17L [2]
  attenuation of MDL-mediated inhibition of forskolin-stimulated cAMP: significantly attenuated

## O=C(NC1CCCc2c1[nH]c1c(Cl)cccc21)c1ccc2c(c1)OCO2 (stereo not shown) [Compd 3, N-(8-Chloro-2,3,4,9-tetrahydro-1H-carbazol-1-yl)benzo[d][1,3]dioxole-5-carboxamide]
hGPR17L [1]
  Emax: 77.4 ± 3.46%
hGPR17L [1]; [4]
  IC50: 11.4 ± 0.59 µM

## COC(=O)[C@H](c1ccccc1Cl)N1CCc2sccc2C1 [clopidogrel, reference compound]
hGPR17L [1]
  antagonist activity at GPR17: do not observe antagonist activity

## CS(=O)(=O)c1ccc(C(=O)NC2CCCc3c2[nH]c2c(Cl)cccc32)cc1F (stereo not shown) [Compd 6, N-(8-Chloro-2,3,4,9-tetrahydro-1H-carbazol-1-yl)-3-fluoro-4-(methylsulfonyl)benzamide]
hGPR17L [1]
  Emax: 38 ± 2.73%

## COc1ccc(C(=O)NC2CCCc3c2[nH]c2c(C)ccc(C)c32)cc1OC (stereo not shown) [Compd 23, N-(5,8-dimethyl-2,3,4,9-tetrahydro-1H-carbazol-1-yl)-3,4-dimethoxybenzamide]
hGPR17L [1]
  Emax: 83.7 ± 2.39%
hGPR17L [1]; [3]
  IC50: 11.8 ± 0.5 µM

## COc1ccc(C(=O)NC2CCCc3c2[nH]c2c(Br)cccc32)cc1OC (stereo not shown) [Compd 19, N-(8-Bromo-2,3,4,9-tetrahydro-1H-carbazol-1-yl)-3,4-dimethoxybenzamide]
hGPR17L [1]
  Emax: 125 ± 4.3%
hGPR17L [1]; [3]
  IC50: 4.29 ± 0.48 µM

## COc1ccc(C(=O)NC2CCCc3c2[nH]c2ccc(C(=O)O)cc32)cc1OC (stereo not shown) [Compd 26, 1-(3,4-Dimethoxybenzamido)-2,3,4,9-tetrahydro-1H-carbazole-6-carboxylic acid]
hGPR17L [1]; Table 3
  Calcium assay IC50(μM) Avg ± SEM: inactive

## C=C[C@@]1(C)CC(=O)[C@]2(O)[C@@]3(C)[C@@H](O)CCC(C)(C)[C@@H]3[C@H](O)[C@H](OC(C)=O)[C@@]2(C)O1 [Forskolin, forskolin, reference compound]
hGPR17L [2]; forskolin alone, basal 0.59 ± 0.04 nM
  cAMP levels after forskolin stimulation: 4.7 ± 0.36 nM

## Cc1cc([N+](=O)[O-])ccc1C(=O)NC1CCCc2c1[nH]c1c(Cl)cccc21 (stereo not shown) [Compd 11, N-(8-Chloro-2,3,4,9-tetrahydro-1H-carbazol-1-yl)-2-methyl-4-nitrobenzamide]
hGPR17L [1]
  Emax: 29.8 ± 1.21%

## O=C(NC1CCCc2c1[nH]c1c(Cl)cccc21)c1ccc([N+](=O)[O-])c([N+](=O)[O-])c1 (stereo not shown) [Compd 8, N-(8-Chloro-2,3,4,9-tetrahydro-1H-carbazol-1-yl)-3,4-dinitrobenzamide]
hGPR17L [1]
  Emax: 74.1 ± 2.16%
hGPR17L [2]
  attenuation of MDL-mediated inhibition of forskolin-stimulated cAMP: significantly attenuated

## O=C(NC1CCCc2c1[nH]c1c(Cl)cccc21)c1ccc(F)c([N+](=O)[O-])c1 (stereo not shown) [Compd 13, N-(8-chloro-2,3,4,9-tetrahydro-1H-carbazol-1-yl)-4-fluoro-3-nitrobenzamide]
hGPR17L [1]
  Emax: 101 ± 9.98%
hGPR17L [1]; [4]
  IC50: 11.6 ± 1.19 µM

## COc1cc(OC)cc(C(=O)NC2CCCc3c2[nH]c2c(Br)cccc32)c1 (stereo not shown) [Compd 20, N-(8-bromo-2,3,4,9-tetrahydro-1H-carbazol-1-yl)-3,5-dimethoxybenzamide]
hGPR17L [1]
  Emax: 55.5 ± 1.74%

## CC(=O)Oc1cc2c(s1)CCN(C(C(=O)C1CC1)c1ccccc1F)C2 (stereo not shown) [prasugrel, reference compound]
hGPR17L [1]
  antagonist activity at GPR17: do not observe antagonist activity

## CS(=O)(=O)c1ccc(C(=O)NC2CCCc3c2[nH]c2c(Cl)cccc32)cc1[N+](=O)[O-] (stereo not shown) [Compd 7, N-(8-Chloro-2,3,4,9-tetrahydro-1H-carbazol-1-yl)-4-(methylsulfonyl)-3-nitrobenzamide]
hGPR17L [1]
  Emax: 117 ± 6.08%
hGPR17L [1]; [4]
  IC50: 4.42 ± 0.34 µM

## CCCc1c(OCCCCc2nnn[nH]2)ccc(C(C)=O)c1O [tomelukast, reference compound]
hGPR17L [1]
  antagonist activity at GPR17: partial antagonist activity

## Cc1cc(C(=O)NC2CCCc3c2[nH]c2c(Cl)cccc32)ccc1Br (stereo not shown) [Compd 10, 4-Bromo-N-(8-chloro-2,3,4,9-tetrahydro-1H-carbazol-1-yl)-3-methylbenzamide]
hGPR17L [1]
  Emax: 52.8 ± 2.26%

## O=C(NC1CCCc2c1[nH]c1c(Cl)cccc21)C(NS(=O)(=O)c1cccs1)c1ccccc1 (stereo not shown) [Compd 14, N-(8-Chloro-2,3,4,9-tetrahydro-1H-carbazol-1-yl)-2-phenyl-2-(thiophene-2-sulfonamido)acetamide]
hGPR17L [1]
  Emax: 104 ± 9.32%
hGPR17L [1]; [4]
  IC50: 7.94 ± 0.49 µM

## COc1cc(OC)cc(C(=O)NC2CCCc3c2[nH]c2c(C)cc(C)cc32)c1 (stereo not shown) [Compd 22, N-(6,8-Dimethyl-2,3,4,9-tetrahydro-1H-carbazol-1-yl)-3,5-dimethoxybenzamide]
hGPR17L [1]
  Emax: 68.2 ± 1.59%

## COc1cc(C(=O)NC2CCCc3c2[nH]c2c(Cl)cccc32)cc(OC)c1OC (stereo not shown) [Compd 2, N-(8-Chloro-2,3,4,9-tetrahydro-1H-carbazol-1-yl)-3,4,5-trimethoxybenzamide]
hGPR17L [1]
  Emax: 47.4 ± 3.11%

## CN(C)C(=O)CCSC(SCCC(=O)O)c1cccc(/C=C/c2ccc3ccc(Cl)cc3n2)c1 (stereo not shown) [MK571, reference compound]
hGPR17L [1]
  antagonist activity at GPR17: no antagonist activity

## O=C(NC1CCCc2c1[nH]c1c(Cl)cccc21)c1ccc(Br)cc1 (stereo not shown) [Compd 16, 4-Bromo-N-(8-chloro-2,3,4,9-tetrahydro-1H-carbazol-1-yl)benzamide]
hGPR17L [1]
  Emax: 40.4 ± 4.47%

## COc1cc(C(=O)NS(=O)(=O)c2ccccc2C)ccc1Cc1cn(C)c2ccc(NC(=O)OC3CCCC3)cc12 [zafirlukast, reference compound]
hGPR17L [1]
  antagonist activity at GPR17: full antagonist activity

## COc1ccc(C(=O)NC2CCCc3c2[nH]c2ccccc32)cc1OC (stereo not shown) [Compd 18, 3,4-Dimethoxy-N-(2,3,4,9-tetrahydro-1H-carbazol-1-yl)benzamide]
hGPR17L [1]
  Emax: 72.1 ± 4.2%
hGPR17L [1]; [3]
  IC50: 9.44 ± 1.25 µM

## COc1ccc(C(=O)NC2CCCc3c2[nH]c2c(C(=O)O)cccc32)cc1OC (stereo not shown) [Compd 24, 1-(3,4-Dimethoxybenzamido)-2,3,4,9-tetrahydro-1H-carbazole-8-carboxylic acid]
hGPR17L [1]; Table 3
  Calcium assay IC50(μM) Avg ± SEM: inactive

## COc1ccc(C(=O)NC2CCCc3c2[nH]c2c(Cl)cccc32)cc1S(C)(=O)=O (stereo not shown) [Compd 5, N-(8-Chloro-2,3,4,9-tetrahydro-1H-carbazol-1-yl)-4-methoxy-3-(methylsulfonyl)benzamide]
hGPR17L [1]
  Emax: 50.6 ± 3.54%

## Cc1ccc(C(=O)NC2CCCc3c2[nH]c2c(Cl)cccc32)cc1 (stereo not shown) [Compd 17, N-(8-chloro-2,3,4,9-tetrahydro-1H-carbazol-1-yl)-4-methylbenzamide]
hGPR17L [1]
  Emax: 62.6 ± 4.84%

## COc1ccc(C(=O)NC2CCCc3c2[nH]c2cc(C(=O)O)ccc32)cc1OC (stereo not shown) [Compd 25, 1-(3,4-Dimethoxybenzamido)-2,3,4,9-tetrahydro-1H-carbazole-7-carboxylic acid]
hGPR17L [1]; Table 3
  Calcium assay IC50(μM) Avg ± SEM: inactive

## Clc1ccccc1CN1CCc2sccc2C1 [ticlopidine, reference compound]
hGPR17L [1]
  antagonist activity at GPR17: do not observe antagonist activity

## COc1ccc(C(=O)NC2CCCc3c2[nH]c2c(Cl)cccc32)cc1C (stereo not shown) [Compd 4, N-(8-Chloro-2,3,4,9-tetrahydro-1H-carbazol-1-yl)-4-methoxy-3-methylbenzamide]
hGPR17L [1]
  Emax: 81.5 ± 1.23%
hGPR17L [1]; [4]
  IC50: 10.7 ± 0.29 µM

## COc1cc(C(=O)NC2CCCc3c2[nH]c2c(Cl)cccc32)ccc1F (stereo not shown) [Compd 9, N-(8-Chloro-2,3,4,9-tetrahydro-1H-carbazol-1-yl)-4-fluoro-3-methoxybenzamide]
hGPR17L [1]
  Emax: 90.3 ± 7.04%
hGPR17L [1]; [4]
  IC50: 12.6 ± 0.89 µM
